ChEMBL document CHEMBL4308908, “Lamellarin-inspired potent topoisomerase I inhibitors with the unprecedented benzo[g][1]benzopyrano[4,3-b]indol-6(13H)-one scaffold” (Bioorg Med Chem, 2019)
Active and inactive are the calls of the source. The rule behind the calls is not given here.

Key:
[1] = Antiproliferative activity against human HBC4 cells after 48 hrs by SRB assay; format: functional; conditions: HBC4, 48 h
MDA-MB-231 = assay: Antiproliferative activity against human MDA-MB-231 cells after 48 hrs by SRB assay; format: functional; conditions: MDA-MB-231, 48 h
SF-268 = assay: Antiproliferative activity against human SF268 cells after 48 hrs by SRB assay; format: functional; conditions: SF-268, 48 h
SF-295 = assay: Antiproliferative activity against human SF295 cells after 48 hrs by SRB assay; format: functional; conditions: SF-295, 48 h
HCT-116 = assay: Antiproliferative activity against human HCT116 cells after 48 hrs by SRB assay; format: functional; conditions: HCT-116, 48 h
NCI-H522 = assay: Antiproliferative activity against human NCI-H522 cells after 48 hrs by SRB assay; format: functional; conditions: NCI-H522, 48 h
OVCAR-8 = assay: Antiproliferative activity against human OVCAR8 cells after 48 hrs by SRB assay; format: functional; conditions: OVCAR-8, 48 h
MKN-1 = assay: Antiproliferative activity against human MKN1 cells after 48 hrs by SRB assay; format: functional; conditions: MKN-1, 48 h
Colon 26 = assay: Antitumor activity against mouse Colon 26 cells implanted in BALB/c mouse at 50 mg/kg, iv administered every 2 days for 7 times starting 1 day after tumor implantation and measured daily until day 20; format: functional, organism-based

- GI50 (MDA-MB-231): 148 nM
- GI50 (HCT-116; read-out: GI50): 15 nM
- GI50 (HCT-116; read-out: pGI50 (converted)): 15.5 nM
- GI50 (NCI-H522; read-out: GI50): 3.4 nM
- GI50 (NCI-H522; read-out: pGI50 (converted)): 3.47 nM
- GI50 (OVCAR-8): 13.5 nM
- GI50 (MKN-1): 44.7 nM
Structure (SMILES): COc1cc2c(ccc3c4c(=O)oc5cc(OC(=O)[C@@H](N)C(C)C)c(OC)cc5c4n(C)c23)cc1OC(=O)[C@@H](N)C(C)C.O=C(O)C(F)(F)F.O=C(O)C(F)(F)F
- GI50 [1]: 10 nM
- GI50 (SF-268): 8.32 nM
- GI50 (SF-295): 12.9 nM
- Activity (Colon 26): Active
